What is called melting point is the temperature, or range, at which the solid turns liquid.

Regarding `N#C/C(=N\Nc1c(Cl)cc(C(F)(F)F)cc1Cl)c1ccc(C#N)cc1` [Compound 3.4, 4-{1-[(2,6-dichloro-4-trifluoromethylphenyl)hydrazono]-2-nitriloethyl}benzonitrile], the melting point lay within 186 to 187 °C.

Turning to `N#C/C(=N\Nc1c(Cl)cc(C(F)(F)F)cc1Cl)c1ccc(Cl)cc1` [Compound 3.16, 4-{1-[(2,6-dichloro-4-trifluoromethylphenyl)hydrazono]-2-nitriloethyl}chlorobenzene], the melting point is 164 to 165 °C.

The record behind these values is patent US6417386B2, “Cyanohydrazone derivatives” (Syngenta Crop Protection, Inc., priority 1996, dated 2002).
